Test [1] deals with A549 cells. In words: In vitro cytotoxicity, MTT assay, A549. Type of test: cell-based, human. Conditions: Homo sapiens, A549 (non-small cell lung cancer), 48 h continuous drug exposure. The protocol: (§1) All cell lines used in this study were purchased from the American Type Culture Collection (ATCC, United States). A549, MCF-7, and HeLa were grown in Dulbecco's modified Eagle's medium (containing 10% FBS in a humidified atmosphere of 5% CO2 at 37° C.). HCT116 cells were cultured in Eagle's minimal essential medium (MEM) containing non-essential amino acids, 1 mM sodium pyruvate, […] bovine insulin, and 10% FBS. Cells were trypsinized when sub-confluent from T25 flasks/60 mm dishes and seeded in 96-well plates. The synthesized test compounds were evaluated for their in vitro antiproliferative in four different human cancer cell lines. A protocol of 48 h continuous drug exposure was used, and a MTT cell proliferation assay was used to estimate cell viability or growth. The cell lines were grown in their respective media containing 10% fetal bovine serum and were seeded into 96-well microtiter plates in 200 μL, aliquots at plating densities depending on the doubling time of individual cell lines. The microtiter plates were incubated at 37° C., 5% CO2, 95% air, and 100% relative humidity for 24 h prior to addition of experimental drugs. Aliquots of 2 μL, of the test compounds were added to the wells already containing 198 μL, of cells, resulting in the required final drug concentrations. For each compound, four concentrations (1, 10, 100, and 1000 μM) were evaluated, and each was done in triplicate wells. Plates were incubated further for 48 h, and the assay was terminated by the addition of 10 μL, of 5% MTT and incubated for 60 min at 37° C. Later, the plates were air-dried. Bound stain was subsequently eluted with 100 μL, of DMSO, and the absorbance was read on an multimode plate reader (Tecan M200) at a wavelength of 560 nm. Percent growth was calculated on a plate by plate basis for test wells relative to control wells. The above determinations were repeated thrice. The growth inhibitory effects of the compounds were analyzed by generating dose response curves as a plot of the percentage surviving cells versus compound concentration. The sensitivity of the cancer cells to the test compound was expressed in terms of IC50, a value defined as the concentration of compound that produced 50% reduction as compared to the control absorbance. (A. S. Kumar, M. A. Reddy, N. Jain, C. Kishor, T. R. Murthy, D. Ramesh, B. Supriya, A. Addlagatta, S. V. Kalivendi, B. Sreedhar. Eur. J. Med. Chem. 60 (2013) 305-24).

For test [2], the system named is MCF-7 cells. In words: In vitro cytotoxicity, MTT assay, MCF-7. Type of test: cell-based, human. Conditions: Homo sapiens, MCF7, 48 h, MCF-7 (breast cancer), 48 h continuous drug exposure. As to the method:
as §1

Test [3] has as its system A549, HeLa, MCF-7 and HCT116 cells. The experiment in a line: In vitro cytotoxicity, MTT assay, summary over all four cancer cell lines. Type of test: cell-based. Conditions: Homo sapiens, range over the group of compounds and the four cell lines, read-out: IC50 value range towards all the cancer cell lines. The protocol:
as §1

The subject of test [4] is HCT116 cells. The experiment in a line: In vitro cytotoxicity, MTT assay, HCT116. Type of test: cell-based, human. Conditions: Homo sapiens, HCT-116, HCT116 (colon carcinoma), 48 h continuous drug exposure. As to the method: as §1
Test [5] has as its system HeLa cells. The experiment in a line: In vitro cytotoxicity, MTT assay, HeLa. Conditions: Homo sapiens, HeLa (cervical carcinoma), 48 h continuous drug exposure. Type of test: cell-based, human. As to the method: as §1
Test [6] has as its system tubulin. Conditions: by binding at colchicine binding site; Simoni et al., J. Med. Chem. 2008; cited from earlier work.

Molecules are shown by their SMILES.

Consider `COc1ccc(/C=C\c2cc(OC)c(OC)c(OC)c2)c(N/C=C\C(=O)c2ccc(OC(F)(F)F)cc2)c1O` [Compound 16o, (Z)-3-((2-hydroxy-3-methoxy-6-((Z)-3,4,5-trimethoxystyryl)phenyl)amino)-1-(4-(trifluoromethoxy)phenyl)prop-2-en-1-one], for which the IC50 in test [1] was 1.32 µM; in test [2] it was 2.24 µM; in test [3], 180 to 7330 nM; in test [4] it was 1.95 µM; in test [5], 7.08 µM.

`COc1ccc(C(=O)/C=C\Nc2c(/C=C\c3cc(OC)c(OC)c(OC)c3)ccc(OC)c2O)cc1O` [Compound 16q, (Z)-3-((2-hydroxy-3-methoxy-6-((Z)-3,4,5-trimethoxystyryl)phenyl)amino)-1-(3-hydroxy-4-methoxyphenyl)prop-2-en-1-one]: the IC50 in test [1] was 1.58 µM; in test [2] it was 0.2 µM; in test [3] it was 180 to 7330 nM; in test [4], 6.76 µM; in test [5], 4.17 µM.

With `COc1ccc(C(=O)/C=C\Nc2c(/C=C\c3cc(OC)c(OC)c(OC)c3)ccc(OC)c2O)cc1[N+](=O)[O-]` [Compound 16t, (Z)-3-((2-hydroxy-3-methoxy-6-((Z)-3,4,5-trimethoxystyryl)phenyl)amino)-1-(4-methoxy-3-nitrophenyl)prop-2-en-1-one], the IC50 is 7.33 µM in test [1]; 0.6 µM in test [2]; 180 to 7330 nM in test [3]; 3.98 µM in test [4]; 1.66 µM in test [5].

For `COc1ccc(C(=O)/C=C\Nc2c(/C=C\c3cc(OC)c(OC)c(OC)c3)ccc(OC)c2O)cc1N` [Compound 16u], the half-inhibitory concentration (IC50) was 1.32 µM in test [1]; 0.18 µM in test [2]; 180 to 7330 nM in test [3]; 1.74 µM in test [4]; 2.51 µM in test [5].

In the case of `COc1ccc(/C=C\c2cc(OC)c(OC)c(OC)c2)c(N/C=C\C(=O)c2cc(OC)c(OC)c(OC)c2)c1O` [Compound 16x, (Z)-3-((2-hydroxy-3-methoxy-6-((Z)-3,4,5-trimethoxystyryl)phenyl)amino)-1-(3,4,5-trimethoxyphenyl)prop-2-en-1-one], the IC50 in test [1] is 0.25 µM; in test [2] it was 0.23 µM; in test [3] it was 180 to 7330 nM; in test [4], 3.63 µM; in test [5], 0.56 µM.

With `COc1ccc(/C=C\c2cc(OC)c(OC)c(OC)c2)c(N/C=C\C(=O)c2cc(OC)c(OC)c(OC)c2Br)c1O` [Compound 16y, (Z)-1-(2-bromo-3,4,5-trimethoxyphenyl)-3-((2-hydroxy-3-methoxy-6-((Z)-3,4,5-trimethoxystyryl)phenyl)amino)prop-2-en-1-one], the IC50 in test [1] was 7.08 µM; in test [2] it was 0.19 µM; in test [3] it was 180 to 7330 nM; in test [4] it was 2.69 µM; in test [5], 1.78 µM.

Regarding `COc1cc(/C=C\c2ccc(OC)c(N)c2)cc(OC)c1` [S4 (Ca-4 amine), (Z)-5-(3,5-dimethoxystyryl)-2-methoxyaniline, reference compound], the IC50 in test [1] stood at 1.78 µM; in test [2], 4.07 µM; in test [4], 1.62 µM; in test [5] it was 0.58 µM. The “inhibited tubulin polymerization, compared with CA-4” value in test [6] was “five times stronger than CA-4”.

The values are drawn from patent US9487482B2, “3,4,5-trimethoxystyrylarylaminopropenones as potential anticancer agents” (Council of Scientific and Industrial Research, priority 2014, dated 2016).
